Test results as given in article PMC6317078 (Science (New York, N.Y.), 2018).

Molecular target: T1, zfDHHC15 (Danio rerio, UniProt F1QXD3, C153S)
T1 sequence (F1QXD3 1-332 C153S): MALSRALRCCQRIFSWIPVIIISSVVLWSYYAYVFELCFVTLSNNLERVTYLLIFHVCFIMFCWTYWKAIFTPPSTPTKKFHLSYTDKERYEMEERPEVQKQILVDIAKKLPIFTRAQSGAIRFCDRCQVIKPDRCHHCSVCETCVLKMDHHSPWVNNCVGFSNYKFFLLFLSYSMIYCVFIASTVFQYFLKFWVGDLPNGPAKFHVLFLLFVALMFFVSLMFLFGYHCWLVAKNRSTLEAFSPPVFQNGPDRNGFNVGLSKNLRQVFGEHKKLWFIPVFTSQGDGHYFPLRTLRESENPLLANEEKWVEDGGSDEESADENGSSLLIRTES
Assay: X-ray crystal structure
Settings: 2.54 Å; acyl-binding cavity; ligand modelled into density, not added

For CCCCCCCCCCCCCCCC(=O)O [palmitic acid], the X-ray crystal structure was “continuous density in this cavity, which we modeled as a palmitic acid”.
